# Experimental data: patent US9079888B2, “Compounds as histamine H3 receptor ligands” (Suven Life Sciences Limited, priority 2011, dated 2015)
# Read-outs that look alike come from different tables or passages of the source.
# Assays:
# [1] = Rodent Brain Penetration Study; type: in vivo, Male Wister rats; conditions: brain / whole blood; Wistar/Male rat, Per Oral, 3 mg/kg, vehicle water; read-out: Brain Penetration Ratio (Cbrain/Cblood)
# Description: Three animals were housed in each cage. Animals were given water and food ad libitum throughout the experiment, and maintained on a 12 hours light/dark cycle.
# New chemical entity (NCE) was dissolved in suitable vehicle and administered orally (3 or 10 mg/kg). […] Blood and brain tissue were collected and brain was homogenized to yield 20% w/v. Blood was stored at 2-8° C. and brain homogenate was frozen at −20° C. until analysis. The concentrations of NCE in blood and brain were quantified using LC-MS/MS method.
# Extents of brain-blood ratio were calculated (Cbrian/Cblood)
# Male Wister rats = assay: Object Recognition Task Model; type: in vivo; conditions: rat; for Exploration time mean ± S.E.M, Familiar object / Exploration time mean ± S.E.M, Novel object: choice trial T2 24 h after T1
# Description: (§1) The cognition enhancing properties of compounds of this invention were estimated by using this model.
# Male Wister rats (230-280 grams) obtained from N. I. N. (National Institute of Nutrition, Hyderabad, India) was used as experimental animals. Four animals were housed in each cage. Animals were kept on 20% food deprivation before one day and given water ad libitum throughout the experiment and maintained on a 12 hours light/dark cycle. Also the rats were habituated to individual arenas for 1 hour in the absence of any objects.
# One group of 12 rats received vehicle (1 mL/Kg) orally and another set of animals received compound of the formula (I) either orally or i.p., before one hour of the familiar (T1) and choice trial (T2).
# The experiment was carried out in a 50×50×50 cm open field made up of acrylic. In the familiarization phase, (T1), the rats were placed individually in the open field for 3 minutes, in which two identical objects (plastic bottles, 12.5 cm height×5.5 cm diameter) covered in yellow masking tape alone (a1 and a2) were positioned in two adjacent corners, 10 cms from the walls. After 24 hours of the (T1) trial for long-term memory test, the same rats were placed in the same arena as they were placed in T1 trial. Choice phase (T2) rats were allowed to explore the open field for 3 minutes in presence of one familiar object (a3) and one novel object (b) (Amber color glass bottle, 12 cm high and 5 cm in diameter). Familiar objects presented similar textures, colors and sizes. During the T1 and T2 trial, explorations of each object (defined as sniffing, licking, chewing or having moving vibrissae whilst directing the nose towards the object at a distance of less than 1 cm) were recorded separately by stopwatch. Sitting on an object was not regarded as exploratory activity, however, it was rarely observed.
# T1 is the total time spent exploring the familiar objects (a1+a2).
# T2 is the total time spent exploring the familiar object and novel object (a3+b).
# The object recognition test was performed as described by Ennaceur, A., Delacour, J., 1988, A new one-trial test for neurobiological studies of memory in rats—Behavioural data, Behay. Brain Res., 31, 47-59.
# [2] = tested on: Scopolamine Induced amnesia; assay: Morris Water Maze; type: in vivo, rats; conditions: rat, active dose p.o.
# Description: as §1
# The water maze apparatus consisted of a circular pool (1.8 m diameter, 0.6 m high) constructed in black Perspex (TSE systems, Germany) filled with water (24±2° C.) and positioned underneath a wide-angled video camera to track animal. The 10 cm^2 perspex platform, lying 1 cm below the water surface, was placed in the centre of one of the four imaginary quadrants, which remained constant for all rats. The black Perspex used in the construction of the maze and platform offered no intramaze cues to guide escape behavior. By contrast, the training room offered several strong extramaze visual cues to aid the formation of the spatial map necessary for escape learning. An automated tracking system, [Videomot 2 (5.51), TSE systems, Germany] was employed. This program analyzes video images acquired via a digital camera and an image acquisition boards that determined path length, swim speed and the number of entries and duration of swim time spent in each quadrant of the water maze.
# [3] = male, Wistar, rat, in vivo
# Description: (§2) Male Wistar rats (230-280 grams) obtained from NIN (National Institute of Nutrition, Hyderabad, India) were used as an experimental animal. Three animals were housed in each cage. Animals were kept fasted over night and maintained on a 12 hours light/dark cycle. Three rats were dosed New chemical entity (NCE) orally (3 or 10 mg/kg) and intravenously (1 or 5 mg/kg) on day 0 and day 2.
# (§3) At each time point blood was collected by jugular vein. Blood was stored at 2-8° C. until analysis. The concentrations of the NCE compound in blood were determined using LC-MS/MS method. Schedule time points: Pre dose 0.08, 0.25, 0.5, 1, 2, 4, 6, 8 and 24 hours after dosing (n=3). The NCE compounds were quantified in blood by partially validated LC-MS/MS method using acetonitrile precipitation technique. […] Study samples were analyzed using calibration samples in the batch and quality control samples spread across the batch.
# (§4) Pharmacokinetic parameters were calculated by non-compartmental model using software WinNonlin version 5.0.1.
# in vivo = conditions: male, Wistar, rat, po, 3 mg/kg
# Description: as §2, §3, §4
# [4] = biological target: Human or Rat Histamine H3 Receptor; assay: Binding assay for human or rat Histamine H3 receptor ([3H] R-α-methylhistamine displacement); conditions: radioligand [3H] R-α-methylhistamine 3.0 nM; receptor source rat brain frontal cortex or recombinant human cDNA in CHO cells (table does not say which)
# Description: The reaction was terminated by rapid vacuum filtration onto the glass fiber filters. Radioactivity trapped onto the filters was determined and compared to the control values in order to ascertain any interactions of the test compound(s) with either cloned human or rat receptor binding site.
# [5] = Rodent Pharmacokinetic Study; conditions: male, Wistar, rat, whole blood
# Description: as §2, §3, §4
smiles,measurement,setting,value
"Cl.Cl.O=C(CN1CCOCC1)Nc1ccc(OC2CCN(C3CCC3)CC2)cc1 [Example 1, N-[4-(1-Cyclobutylpiperidin-4-yloxy)phenyl]-2-(morpholin-4-yl)-acetamide dihydrochloride]",Kp,[1],0.93 ± 0.05
same,Inference,Male Wister rats; 0.3 mg/kg p.o.,Active
same,"Exploration time mean ± S.E.M, Familiar object",Male Wister rats; 0.3 mg/kg p.o.,5.56 ± 0.81 s
same,"Exploration time mean ± S.E.M, Novel object",Male Wister rats; 0.3 mg/kg p.o.,15.36 ± 1.74 s
same,Reversal of Scopolamine Induced amnesia,[2],"≦1 mg/kg, p.o."
same,AUCt,"[3]; iv, 1 mg/kg",263 ± 21 ng·h/mL
same,AUCt,"[3]; po, 3 mg/kg",626 ± 118 ng·h/mL
same,Cmax,in vivo,349 ± 35 ng/mL
same,Tmax,in vivo,0.42 ± 0.14 h
same,bioavailability,in vivo,79 ± 11%
"CC(=O)N(CCN1CCOCC1)c1ccc(OC2CCN(C3CCC3)CC2)cc1F [Example 37, N-[4-(1-Cyclobutylpiperidin-4-yloxy)-2-fluorophenyl]-N-[2-(morpholin-4-yl)-ethyl] acetamide]",Ki,[4],9.73 nM
same,Kp,[1],1.24 ± 0.18
same,Inference,Male Wister rats; 3 mg/kg p.o.,Active
same,"Exploration time mean ± S.E.M, Familiar object",Male Wister rats; 3 mg/kg p.o.,5.53 ± 1.67 s
same,"Exploration time mean ± S.E.M, Novel object",Male Wister rats; 3 mg/kg p.o.,14.18 ± 2.04 s
same,AUC(0-t),"[5]; iv, 1 mg/kg",68 ± 2 ng·h/mL
same,half-life,"[5]; iv, 1 mg/kg",3.3 ± 0.42 h
same,AUC(0-t),"[5]; po, 3 mg/kg",64 ± 16 ng·h/mL
same,Cmax,"[5]; po, 3 mg/kg",27 ± 11 ng/mL
same,Tmax,"[5]; po, 3 mg/kg",0.5 h
same,bioavailability,"[5]; po, 3 mg/kg",32 ± 8%
same,half-life,"[5]; po, 3 mg/kg",3.59 ± 0.43 h
